Measured values as given in patent publication US8088822B2, “Use of fenretinide or bioactive derivatives thereof and pharmaceutical compositions comprising the same” (priority 2008, dated 2012).

Assays:
[1] = test system: CD34+CD38− CML stem cells (LSC); assay: Apoptosis (Annexin V/7AAD, FACS) of CML stem cells; assay type: cell-based, human
Excerpt: Fresh bone marrow (BM) cells were obtained from 38 patients with CML and 5 non-leukemic donors, 25 AML, 17 ALL, and 8 normal specimens with informed consent according to the Declaration of Helsinki. Approval was obtained from Institutional Review Board at the School of Medicine in Shanghai Jiao Tong University. BM mononuclear cells were isolated by Ficoll density gradient centrifugation (Shanghai Second Reagent Factory, Shanghai, China). CD34^+ Cell were selected using EasySep® Human CD34 Positive Selection kit (Stem Cell Technologies, Vancouver, BC, Canada) according to the manufacturer's instructions. The purity of CD34 cells ranged between 92 and 98% in all samples detennined by flow cytometry. The CD34^+ cells were cultured in a serum-free medium (StemPro 34; Gibco BRL, Gaithersburg, Md.) supplemented with growth factors (PeproTech, London, United Kingdom) (20). The growth factors consisted of GM-CSF (200 pg/mL), G-CSF (1 ng/mL); SCF (200 pg/mL); LIF (50 pg/mL), MIP-1α (200 pg/mL) and IL-6 (1 ng/mL).
(§1) Primitive AML and CML subpopulations (CD34^+ cells) were identified using CD34-PE in combination with CD38-APC, and followed by double-labeling with 7AAD and Annexin V antibodies for apoptosis assessment. The CD34^+ cells were first stained with antibodies against the surface markers CD34-PE and CD38-APC (Beckman Coulter, Fullerton, Calif.) and incubated at room temperature for 15 minutes. Cells were then washed with cold PBS and resuspended in 200 μL annexin V 1×binding buffer (10 mM HEPES/NaOH, pH 7.4, 140 mM NaCl, 2.5 mM CaCl2), 5 μL AnnexinV-FITC (BD Phanningen, San Diego, Calif.) and 7-aminoactinomycin (7-AAD, 0.25 mg/mL) (Molecular Probes, Eugene, Oreg.). Subsequently, the samples were incubated at room temperature for 15 minutes and analyzed by flow cytometry.
It would be of significance to find out the subpopulations specifically targeted by fenretinide. We divided the CML patient specimens into mononuclear cells and CD34^+ cells. The CD34^+ CML cells are primitive cells including CML stem and progenitor cells. Upon treated with fenretinide, CD34^+ CML cells were further subdivided into CD34^+CD38^− enriched with CML stem cells and CD34^+CD38^+ with CML progenitor cells. After gating on primitive CML subfractions, 7AAD and Annexin V antibodies were utilized for apoptosis assessment by FACS. […] The difference of apoptosis rates between CD34^+CD38^+ and CD34^+CD38^− cells was significant (p<0.001). The effects of the fenretinide exposures on the leukemia stem cells (LSC) and normal hematopoietic stem cells (HSC) in the CD34^+CD38^− cells were shown in a representative specimen (FIG. 3B). The specimens in 5 CML patients had the similar effects on the LSC and in 5 non-leukemic donors had the similar patterns as that of nonnal HSC.

[2] = test system: CD34+CD38− acute leukemia stem and CD34+CD38+ progenitor population; assay: Apoptosis of acute leukemia (AML and ALL) stem and progenitor subpopulations; assay type: cell-based, human; conditions: AML and ALL specimens
Protocol: as §1
Furthermore, we examined whether fenretinide can preferentially target highly quiescent LSCs with CD34^+CD38^− immunophenotyte and leukemia progenitor cells with CD34^+CD38^+ for AML and most ALL specimens. Due to the difficulty of obtaining adequate normal CD34^+CD38^− cells, our apoptosis data of normal specimens came from CD34^− cell populations. Also, we used Ara-C and VCR (vincristine) as controls to test the apoptosis of leukemia stem cells, which were thought to be resistant to these chemotherapeutics.

XBP-1 = assay: RT-PCR of ER stress marker XBP-1 splicing in K562 cells; assay type: cell-based; conditions: whole time courses
Excerpt: Real-time quantitative RT-PCR was preformed on ABI7900 thermocycler detection system using SYBR Green I (Applied Biosystems, Foster City, Calif.).
Despite of tremendous efforts (Oridate et al., 1997), mechanisms underlying fenretinide-induced apoptosis are far from clear. In particular, knowledge in terms of how oxidative stress is converted into downstream activities in fenretinide-treated cancer cells is limited. We performed a comprehensive analysis of fenretinide-induced apoptosis in leukemia cell lines through microarray technology integrated robust data mining tool, and techniques of molecular biology. Transcriptome analysis of fenretinide-induced apoptosis in NB4 cells highlighted numerous stress-responsive events at the temporal-spatial level, typifying a process of oxidative stress-mediated apoptosis. Among these prominent events were genes involved in transcriptional regulation, ribosome machinery, oxidative stress, endoplasmic reticulum stress/unfolded protein response (UPR), ubiquitin-proteasome system and apoptosis (FIG. 7A). […] Recently, data have shown that fenretinide may perturb cellular homeostasis and induced ER stress, which may eventually contribute to apoptosis. ER stress is cellular defense mechanism responding to various stimuli including oxidative stressors. […]

Q: Which results are given for `CC1=C(/C=C/C(C)=C/C=C/C(C)=C/C(=O)Nc2ccc(O)cc2)C(C)(C)CCC1` [fenretinide, N-(4-hydroxyphenyl)retinamide]?
A: apoptosis of CD34+CD38− cells ([1]; 2 μM fenretinide): 60.58%±2.76%; apoptosis of CD34+CD38− cells ([1]; 4 μM fenretinide): 63.75%±8.49%; apoptosis of CD34+CD38− cells ([1]; 6 μM fenretinide): 62.83%±9.72%; reduction of LSC in the CD34+CD38− cells ([1]; representative specimen): 80.3%; apoptosis in the LSC (CML stem cells) ([1]; representative specimen, fenretinide alone or co-treatment with imatinib): 53.3%; apoptosis in CD34+CD38− acute leukemia stem population versus CD34+CD38+ progenitor population [2]: more apoptosis; splicing of the XBP-1 gene (XBP-1): observable
